Measured values reported in patent US10723726B2, “Solid forms of (Z)-4-(5-((3-benzyl-4-oxo-2-thioxothiazolidin-5-ylidene)methyl)furan-2-yl)benzoic acid” (GB006, INC., priority 2015, dated 2020).
Converted amounts (≈) assume the structure as drawn. “Also recorded” adds a separate entry of the source. Structures can show the parent of a compound that is named as a salt.

What was measured:
physchem = assay: physchem
Excerpt: A limited salt screen was previously conducted using five inorganic counter-ions (Na, K, NH4, Ca and Mg).

[1] = Humidity stress at 40° C./75% RH; format: physicochemical; conditions: 5-6 days
Experimental: The larger vials were capped, sealed with Parafilm and placed inside an oven at 40° C. for up to 6 days. Salts were then removed from these conditions and changes observed (e.g. color, deliquescence etc.) before being analyzed for weight change and by XRPD. Samples were examined visually after stressing, form composition confirmed by XRPD analysis and weight change recorded (Table 7).

Row | solubility (physchem) [µg/mL] | Weight gain (%) [1] [%] | SMILES | XRPD after stressing [1]
1 | 0.78 (≈ 1.85 µM) |  | O=C(O)c1ccc(-c2ccc(/C=C3\SC(=S)N(Cc4ccccc4)C3=O)o2)cc1 [LA1, (Z)-4-(5-((3-benzyl-4-oxo-2-thioxothiazolidin-5-ylidene)methyl)furan-2-yl)benzoic acid] | 
2 |  | 8.9 | O=C(O)c1ccc(-c2ccc(/C=C3\SC(=S)N(Cc4ccccc4)C3=O)o2)cc1 [LA1 choline salt] | phase change; also recorded: New pattern (Q)
